Data from patent publication US20150181873A1, “HERBICIDE-RESISTANT SUNFLOWER PLANTS, POLYNUCLEOTIDES ENCODING HERBICIDE=RESISTANT ACETO HYDROXY ACID SYNTHASE LARGE SUBUNIT PROTEINS, AND METHODS OF USE” (NIDERA S.A., priority 2013, published 2015).

Tests used:
Format in all cases: in vivo, Helianthus annuus
[1] = tested on: sunflower restorer line TH12 (A122T); assay: Greenhouse imazapir dose response, TH12; settings: 14 DAT
Protocol: (§1) A greenhouse study was conducted to quantify and contrast the imazapir sensivity of the mutants A122T and A205V in different genetic backgrounds at the whole plant level in sunflower. Seeds of the different sunflower lines that were used in this study were obtained under field conditions.
(§2) Seeds were sown in Petri dishes and, after germination, plantlets were transplanted to pots of 10 cm of diameter in a potting media consisting of equal parts of vermiculite, soil and sand. Plants were grown in a greenhouse under natural light conditions supplemented with 400 W sodium halide lamps to provide a 16 hrs daylength. Day/night temperatures were 25 and 20° C., respectively. At the V2 stage 10 plants of each genotype were randomly assigned to each treatment consisting of […] imazapir doses (0, 40, 80, 160, 240, 320, 400 and 480 g ai/ha), and a zero-time biomass determination. Experiment was arranged as a randomized block design with a full factorial (sunflower line×treatment) arrangement of treatments and 10 replications.
(§3) On the day of herbicide application ten plants of each genotype were cut at the cotyledonal node and dried at 60° C. for 48 hrs zero-time for dried weight determination. […] Height was determined as the distance between the cotyledonal node and the apex of each plant. For root biomass determination, each plant was taken from the pot and the potting media was washed out from the roots. Above ground biomass data from each line were converted to biomass accumulation after application by subtracting the appropriate average zero-time biomass from each sample. Dry biomass data were converted to percentages of the untreated control plants within each line to allow direct comparisons between groups.

[2] = tested on: Conventional non-Clearfield sunflower variety; assay: Greenhouse spray injury rating, conventional variety; settings: imazapyr 240 gm ai/ha, scale 0-9
Description: (§4) Sunflower lines S4897, Clearfield® sunflower varieties A, B, C and a conventional non-Clearfield variety were sprayed with three rates of imazamox (Raptor™), 100, 200 and 300 gm ai/ha plus 0.5% Sun It II and two rates of imazapyr (Arsenal™) 160 and 360 gm ai/ha plus 0.5% Sun It II when the plants were at the two to three leaf stage. Ratings were taken at 14 days after application (DAT) for injury. Injury was rated on a scale from 0 to 9 where 0=no injury to 9=dead plant. Twelve plants were sprayed per herbicide/rate treatment. Statistical analysis was conducted with STATGRAPHICS Plus 5.0 by using ANOVA and LSD procedures.
(§5) After plants were sprayed, it was realized that a height difference between S4897 and other sunflower varieties would have impacted the actual herbicide dose that was delivered. The spray boom height had been calibrated against S4897 and since the other varieties were taller and closer to the boom they would have received a greater dose of herbicide. Rates were recalibrated for the other varieties to determine the approximate dose they would have received. Assessments were made as presented in Table 2 since it was not possible to make a direct rate comparison due to the effect of the height. For example injury scores were compare for S4897 treated imazamox rate 100 gm ai/ha to the other varieties treated at 75 gm ai/ha. The treatment dose of 300 gm ai/ha for line S4897 was equivalent to the treatment of 200 gm ai/ha for the other varieties, which […].

[3] = tested on: sunflower line GM1606 (A122T); assay: Greenhouse imazapir dose response, GM1606; settings: 14 DAT
Protocol: as §1, §2, §3

[4] = tested on: Clearfield sunflower variety A; assay: Greenhouse spray injury rating, Clearfield variety A; settings: imazapyr 240 gm ai/ha, scale 0-9
Description: as §4, §5

[5] = tested on: sunflower restorer line IR79 (A205V); assay: Greenhouse imazapir dose response, IR79; settings: 14 DAT
Protocol: as §1, §2, §3

[6] = tested on: Sunflower line S4897; assay: Greenhouse spray injury rating, line S4897; settings: imazapyr 360 gm ai/ha (column 360/240)
Description: as §4, §5

CC(C)C1(C)N=C(c2ncccc2C(=O)O)NC1=O (centres unmarked) [Imazapyr, imazapyr]
Phytotoxicity Index ([1]; 0.5x (40 g ai/ha)): 0.0
biomass accumulation, % of untreated ([1]; 0.5x (40 g ai/ha)): 100.0%
plant height, % of untreated ([1]; 0.5x (40 g ai/ha)): 100.0%
root dry weight, % of untreated ([1]; 0.5x (40 g ai/ha)): 99.4%
Phytotoxicity Index ([1]; 1x (80 g ai/ha)): 0.0
biomass accumulation, % of untreated ([1]; 1x (80 g ai/ha)): 99.1%
plant height, % of untreated ([1]; 1x (80 g ai/ha)): 100.0%
root dry weight, % of untreated ([1]; 1x (80 g ai/ha)): 100%
Phytotoxicity Index ([1]; 2x (160 g ai/ha)): 0.0
biomass accumulation, % of untreated ([1]; 2x (160 g ai/ha)): 97.0%
plant height, % of untreated ([1]; 2x (160 g ai/ha)): 101.8%
root dry weight, % of untreated ([1]; 2x (160 g ai/ha)): 100%
Phytotoxicity Index ([1]; 3x (240 g ai/ha)): 0.0
biomass accumulation, % of untreated ([1]; 3x (240 g ai/ha)): 96.1%
plant height, % of untreated ([1]; 3x (240 g ai/ha)): 97.0%
root dry weight, % of untreated ([1]; 3x (240 g ai/ha)): 100.0%
Phytotoxicity Index ([1]; 4x (320 g ai/ha)): 0.0
biomass accumulation, % of untreated ([1]; 4x (320 g ai/ha)): 84.3%
plant height, % of untreated ([1]; 4x (320 g ai/ha)): 92.1%
root dry weight, % of untreated ([1]; 4x (320 g ai/ha)): 74.5%
Phytotoxicity Index ([1]; 5x (400 g ai/ha)): 0.0
biomass accumulation, % of untreated ([1]; 5x (400 g ai/ha)): 77.5%
plant height, % of untreated ([1]; 5x (400 g ai/ha)): 84.8%
root dry weight, % of untreated ([1]; 5x (400 g ai/ha)): 65.0%
Phytotoxicity Index ([1]; 6x (480 g ai/ha)): 0.5
biomass accumulation, % of untreated ([1]; 6x (480 g ai/ha)): 70.7%
plant height, % of untreated ([1]; 6x (480 g ai/ha)): 79.8%
root dry weight, % of untreated ([1]; 6x (480 g ai/ha)): 57.8%
Injury at 14 DAT [2]: 8.2 days
biomass accumulation, % of untreated ([3]; 0.5x (40 g ai/ha)): 100.0%
plant height, % of untreated ([3]; 0.5x (40 g ai/ha)): 97.0%
root dry weight, % of untreated ([3]; 0.5x (40 g ai/ha)): 100%
biomass accumulation, % of untreated ([3]; 1x (80 g ai/ha)): 100.0%
plant height, % of untreated ([3]; 1x (80 g ai/ha)): 95.7%
root dry weight, % of untreated ([3]; 1x (80 g ai/ha)): 100.0%
biomass accumulation, % of untreated ([3]; 2x (160 g ai/ha)): 97.6%
plant height, % of untreated ([3]; 2x (160 g ai/ha)): 95.2%
root dry weight, % of untreated ([3]; 2x (160 g ai/ha)): 92.5%
biomass accumulation, % of untreated ([3]; 3x (240 g ai/ha)): 95.4%
plant height, % of untreated ([3]; 3x (240 g ai/ha)): 95.7%
root dry weight, % of untreated ([3]; 3x (240 g ai/ha)): 85.2%
biomass accumulation, % of untreated ([3]; 4x (320 g ai/ha)): 90.5%
plant height, % of untreated ([3]; 4x (320 g ai/ha)): 94.1%
root dry weight, % of untreated ([3]; 4x (320 g ai/ha)): 87.0%
biomass accumulation, % of untreated ([3]; 5x (400 g ai/ha)): 85.3%
plant height, % of untreated ([3]; 5x (400 g ai/ha)): 94.3%
root dry weight, % of untreated ([3]; 5x (400 g ai/ha)): 88.1%
biomass accumulation, % of untreated ([3]; 6x (480 g ai/ha)): 83.0%
plant height, % of untreated ([3]; 6x (480 g ai/ha)): 91.4%
root dry weight, % of untreated ([3]; 6x (480 g ai/ha)): 69.5%
Injury at 14 DAT [4]: 5.0 c
biomass accumulation, % of untreated ([5]; 0.5x (40 g ai/ha)): 94.4%
plant height, % of untreated ([5]; 0.5x (40 g ai/ha)): 92.8%
root dry weight, % of untreated ([5]; 0.5x (40 g ai/ha)): 98.6%
biomass accumulation, % of untreated ([5]; 1x (80 g ai/ha)): 74.0%
plant height, % of untreated ([5]; 1x (80 g ai/ha)): 80.9%
root dry weight, % of untreated ([5]; 1x (80 g ai/ha)): 53.4%
biomass accumulation, % of untreated ([5]; 2x (160 g ai/ha)): 67.7%
plant height, % of untreated ([5]; 2x (160 g ai/ha)): 74.9%
root dry weight, % of untreated ([5]; 2x (160 g ai/ha)): 42.5%
biomass accumulation, % of untreated ([5]; 3x (240 g ai/ha)): 49.1%
plant height, % of untreated ([5]; 3x (240 g ai/ha)): 55.7%
root dry weight, % of untreated ([5]; 3x (240 g ai/ha)): 38.4%
biomass accumulation, % of untreated ([5]; 4x (320 g ai/ha)): 44.5%
plant height, % of untreated ([5]; 4x (320 g ai/ha)): 52.8%
root dry weight, % of untreated ([5]; 4x (320 g ai/ha)): 31.5%
biomass accumulation, % of untreated ([5]; 5x (400 g ai/ha)): 40.1%
plant height, % of untreated ([5]; 5x (400 g ai/ha)): 41.7%
root dry weight, % of untreated ([5]; 5x (400 g ai/ha)): 23.3%
biomass accumulation, % of untreated ([5]; 6x (480 g ai/ha)): 35.3%
plant height, % of untreated ([5]; 6x (480 g ai/ha)): 33.2%
root dry weight, % of untreated ([5]; 6x (480 g ai/ha)): 21.9%
Injury at 14 DAT ([6]; scale 0-9): 0.8 a
Injury at 14 DAT ([6]; scale 0-9, listed as imazapyr): very little injury
